The target in the test is T1, Caspase-1 (Homo sapiens, UniProt P29466).
T1 sequence (P29466 whole entry): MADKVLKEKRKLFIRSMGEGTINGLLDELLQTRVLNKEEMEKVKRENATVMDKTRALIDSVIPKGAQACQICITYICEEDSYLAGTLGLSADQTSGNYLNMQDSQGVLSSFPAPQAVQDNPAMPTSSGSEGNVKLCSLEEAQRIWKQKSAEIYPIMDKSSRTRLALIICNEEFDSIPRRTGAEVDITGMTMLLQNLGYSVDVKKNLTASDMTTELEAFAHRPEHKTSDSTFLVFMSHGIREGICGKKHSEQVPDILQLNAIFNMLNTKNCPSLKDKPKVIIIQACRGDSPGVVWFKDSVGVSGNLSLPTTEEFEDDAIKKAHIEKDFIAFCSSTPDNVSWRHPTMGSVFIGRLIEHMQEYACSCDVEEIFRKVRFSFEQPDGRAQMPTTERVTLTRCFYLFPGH
Description: Tested for inhibition of cysteine proteinase IL-1 beta converting enzyme (ICE).

Each structure is given as a SMILES string.

Consider eight compounds from ChEMBL document CHEMBL1152088, “Activated ketones as potent reversible inhibitors of interleukin-I converting enzyme” (Bioorg Med Chem Lett, 1994).

`CC(C)[C@H](NC(=O)CCc1ccccc1)C(=O)N[C@@H](C)C(=O)NC(CC(=O)O)C(=O)CCCCc1ccccc1` (stereo partly drawn) returned an inhibition constant (Ki) of 100 nM. `CC(C)[C@H](NC(=O)CCc1ccccc1)C(=O)N[C@@H](C)C(=O)NC(CC(=O)O)C(=O)CNCCc1ccccc1` (stereo partly drawn) had an inhibitory constant (Ki) of 4.7 nM.

Regarding `CC(C)[C@H](NC(=O)CCc1ccccc1)C(=O)N[C@@H](C)C(=O)NC(CC(=O)O)C(=O)C[S+]([O-])CCCc1ccccc1` (stereo partly drawn), the Ki worked out at 27 nM. For `CC(C)[C@H](NC(=O)CCc1ccccc1)C(=O)N[C@@H](C)C(=O)NC(CC(=O)O)C(=O)CN(CCc1ccccc1)Cc1ccccc1` (stereo partly drawn), the inhibition constant (Ki) is 60 nM. In the case of `CC(C)[C@H](NC(=O)CCc1ccccc1)C(=O)N[C@@H](C)C(=O)NC(CC(=O)O)C(=O)CSCCCc1ccccc1` (stereo partly drawn), the Ki came out at 11 nM. `CC(C)[C@H](NC(=O)CCc1ccccc1)C(=O)N[C@@H](C)C(=O)NC(CC(=O)O)C(=O)CS(=O)(=O)CCCc1ccccc1` (stereo partly drawn) yielded a Ki of 113 nM.

`CC(C)[C@H](NC(=O)CCc1ccccc1)C(=O)N[C@@H](C)C(=O)NC(CC(=O)O)C(=O)COC(=O)CCc1ccccc1` (stereo partly drawn) came in with a Ki of 2.7 nM. In the case of `CC(C)[C@H](NC(=O)CCc1ccccc1)C(=O)N[C@@H](C)C(=O)NC(CC(=O)O)C(=O)COC(=O)NCc1ccccc1` (stereo partly drawn), the inhibitory constant (Ki) turned out to be 120 nM.
